Tests used:
[1] = target: T1, Ribosomal protein S6 kinase delta-1 (Homo sapiens) (UniProt Q96S38); experiment: Selectivity interaction (Kinase panel (KiNativ target engagement assay in Jurkat cells)) EUB0001635a RPS6KC1; type: cell-based; settings: Selectivity number of off-targets 0.0, Selectivity number of targets 233.0, Source Knowledge https://www.sciencedirect.com/science/article/pii/S2451945619300674?via%3Dihub, at 1 µM
T1 sequence (whole entry): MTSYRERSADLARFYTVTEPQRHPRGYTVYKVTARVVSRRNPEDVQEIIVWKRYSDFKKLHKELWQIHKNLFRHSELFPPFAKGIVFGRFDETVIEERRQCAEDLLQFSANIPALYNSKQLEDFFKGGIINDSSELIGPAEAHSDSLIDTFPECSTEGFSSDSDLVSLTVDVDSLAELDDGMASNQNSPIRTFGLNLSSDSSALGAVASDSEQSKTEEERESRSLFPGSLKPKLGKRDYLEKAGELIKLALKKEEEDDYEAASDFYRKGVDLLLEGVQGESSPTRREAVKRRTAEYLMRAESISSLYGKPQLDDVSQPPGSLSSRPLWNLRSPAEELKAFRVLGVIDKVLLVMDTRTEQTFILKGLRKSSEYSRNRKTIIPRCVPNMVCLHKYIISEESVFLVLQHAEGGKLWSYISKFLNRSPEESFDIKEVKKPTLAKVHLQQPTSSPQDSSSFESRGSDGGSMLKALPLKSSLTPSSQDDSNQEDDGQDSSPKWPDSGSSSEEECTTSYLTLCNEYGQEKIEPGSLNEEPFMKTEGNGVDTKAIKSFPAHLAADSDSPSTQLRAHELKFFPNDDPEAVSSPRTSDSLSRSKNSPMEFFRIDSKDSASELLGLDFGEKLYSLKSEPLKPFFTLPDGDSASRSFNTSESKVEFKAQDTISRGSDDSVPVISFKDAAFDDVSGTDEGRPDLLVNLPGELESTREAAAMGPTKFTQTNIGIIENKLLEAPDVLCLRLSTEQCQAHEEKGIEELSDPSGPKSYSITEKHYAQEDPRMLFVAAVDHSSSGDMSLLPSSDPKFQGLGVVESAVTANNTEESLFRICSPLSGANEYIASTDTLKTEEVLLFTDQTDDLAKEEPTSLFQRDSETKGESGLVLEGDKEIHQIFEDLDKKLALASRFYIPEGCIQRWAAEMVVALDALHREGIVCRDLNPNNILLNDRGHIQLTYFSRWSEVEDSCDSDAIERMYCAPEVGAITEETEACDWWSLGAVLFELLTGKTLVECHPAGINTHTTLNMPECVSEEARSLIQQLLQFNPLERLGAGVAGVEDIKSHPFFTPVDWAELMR

[2] = target: 5-hydroxytryptamine receptor 2A (Homo sapiens, UniProt P28223); experiment: Selectivity interaction (GPCR panel (PDSP screen)) EUB0001079a HTR2A; settings: at 10 µM
5-hydroxytryptamine receptor 2A, sequence (P28223 whole entry): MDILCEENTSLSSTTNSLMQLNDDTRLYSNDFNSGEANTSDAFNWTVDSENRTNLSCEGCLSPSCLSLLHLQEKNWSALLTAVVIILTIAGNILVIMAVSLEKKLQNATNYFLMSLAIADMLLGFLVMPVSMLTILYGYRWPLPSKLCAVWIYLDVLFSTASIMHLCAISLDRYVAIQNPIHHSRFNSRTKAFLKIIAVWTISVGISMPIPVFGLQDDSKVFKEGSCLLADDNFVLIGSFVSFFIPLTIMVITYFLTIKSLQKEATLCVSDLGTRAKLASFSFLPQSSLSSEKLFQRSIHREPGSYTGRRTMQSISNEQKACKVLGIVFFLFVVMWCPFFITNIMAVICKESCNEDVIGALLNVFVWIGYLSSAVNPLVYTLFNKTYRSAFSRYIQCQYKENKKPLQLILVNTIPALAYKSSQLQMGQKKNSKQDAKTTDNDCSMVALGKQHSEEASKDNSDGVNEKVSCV

[3] = target: Tyrosine-protein kinase Yes (Homo sapiens) (UniProt P07947); experiment: Selectivity interaction (Kinase panel (Z-LYTE Assay)) EUB0001632a YES1; settings: at 10 µM
Tyrosine-protein kinase Yes (Homo sapiens), sequence (P07947 2-543 limits assumed): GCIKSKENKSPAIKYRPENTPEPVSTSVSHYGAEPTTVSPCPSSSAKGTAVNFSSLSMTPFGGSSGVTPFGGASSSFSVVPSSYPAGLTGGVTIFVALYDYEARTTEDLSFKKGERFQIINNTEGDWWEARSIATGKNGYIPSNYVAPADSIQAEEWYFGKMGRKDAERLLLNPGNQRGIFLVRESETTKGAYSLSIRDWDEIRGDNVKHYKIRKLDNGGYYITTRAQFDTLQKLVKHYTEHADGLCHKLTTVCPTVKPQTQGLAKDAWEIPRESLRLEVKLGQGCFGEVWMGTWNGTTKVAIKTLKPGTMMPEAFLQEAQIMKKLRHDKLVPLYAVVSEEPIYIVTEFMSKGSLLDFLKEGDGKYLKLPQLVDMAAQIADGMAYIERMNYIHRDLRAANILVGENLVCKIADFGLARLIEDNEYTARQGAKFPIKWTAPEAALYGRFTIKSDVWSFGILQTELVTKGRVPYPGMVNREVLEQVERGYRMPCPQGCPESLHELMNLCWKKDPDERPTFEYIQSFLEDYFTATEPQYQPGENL

[4] = target: T2, Histone-arginine methyltransferase CARM1 (Homo sapiens) (UniProt Q86X55); experiment: Selectivity interaction (Methyltransferase screen (radiometric assays, panel of 8 PRMTs, 21 protein lysine methyltransferases, 3 DNA methyltransferases, and one RNA methyltransferase)) EUB0000272b CARM1
T2 sequence (whole entry): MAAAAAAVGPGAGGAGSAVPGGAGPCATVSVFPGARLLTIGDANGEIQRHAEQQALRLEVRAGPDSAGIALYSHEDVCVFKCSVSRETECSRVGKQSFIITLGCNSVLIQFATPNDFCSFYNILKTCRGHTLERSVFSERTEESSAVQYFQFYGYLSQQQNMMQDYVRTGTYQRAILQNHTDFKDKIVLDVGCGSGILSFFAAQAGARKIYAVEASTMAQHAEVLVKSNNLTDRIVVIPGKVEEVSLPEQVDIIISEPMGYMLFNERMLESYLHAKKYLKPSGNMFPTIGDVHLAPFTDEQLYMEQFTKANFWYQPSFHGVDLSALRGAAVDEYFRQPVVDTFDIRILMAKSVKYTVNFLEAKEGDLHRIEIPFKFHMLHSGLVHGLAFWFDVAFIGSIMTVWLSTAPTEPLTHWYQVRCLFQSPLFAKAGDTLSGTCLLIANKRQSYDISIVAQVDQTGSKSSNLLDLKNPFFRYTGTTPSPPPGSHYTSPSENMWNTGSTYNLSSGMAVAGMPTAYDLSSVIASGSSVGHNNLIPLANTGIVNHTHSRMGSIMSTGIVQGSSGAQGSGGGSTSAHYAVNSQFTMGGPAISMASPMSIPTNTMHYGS

[5] = target: T3, Mitogen-activated protein kinase 13 (Homo sapiens) (UniProt O15264); experiment: Selectivity interaction (ProQinase) EUB0000171b MAPK13
T3 sequence (whole entry): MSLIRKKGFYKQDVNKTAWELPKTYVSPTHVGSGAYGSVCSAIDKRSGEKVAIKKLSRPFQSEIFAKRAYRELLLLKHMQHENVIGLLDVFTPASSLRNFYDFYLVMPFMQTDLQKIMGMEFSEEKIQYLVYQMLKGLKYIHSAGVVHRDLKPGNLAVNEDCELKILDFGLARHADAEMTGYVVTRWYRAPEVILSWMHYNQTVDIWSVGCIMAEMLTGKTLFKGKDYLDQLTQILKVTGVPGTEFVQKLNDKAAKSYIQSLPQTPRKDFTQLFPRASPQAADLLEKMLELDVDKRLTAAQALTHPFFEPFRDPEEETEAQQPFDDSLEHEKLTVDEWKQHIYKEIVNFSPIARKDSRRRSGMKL

[6] = target: Cyclin-dependent kinase 2 (Homo sapiens, UniProt P24941); experiment: Selectivity interaction (Kinase panel (literature)) EUB0001199aCl CDK2; settings: at 1 µM
[7] = target: Macrophage-stimulating protein receptor (Homo sapiens, UniProt Q04912); experiment: Selectivity interaction (Kinase panel (Invitrogen)) EUB0000639a MST1R; settings: at 200 nM
Macrophage-stimulating protein receptor, sequence (Q04912 25-304 limits assumed): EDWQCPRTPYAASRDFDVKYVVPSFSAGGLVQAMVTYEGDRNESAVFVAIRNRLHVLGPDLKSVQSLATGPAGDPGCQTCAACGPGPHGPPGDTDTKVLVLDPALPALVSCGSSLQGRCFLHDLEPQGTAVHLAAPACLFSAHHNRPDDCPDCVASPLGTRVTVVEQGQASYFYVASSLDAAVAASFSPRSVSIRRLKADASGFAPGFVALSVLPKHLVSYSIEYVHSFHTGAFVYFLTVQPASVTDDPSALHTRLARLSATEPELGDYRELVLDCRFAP
Macrophage-stimulating protein receptor, sequence (Q04912 310-1400 limits assumed): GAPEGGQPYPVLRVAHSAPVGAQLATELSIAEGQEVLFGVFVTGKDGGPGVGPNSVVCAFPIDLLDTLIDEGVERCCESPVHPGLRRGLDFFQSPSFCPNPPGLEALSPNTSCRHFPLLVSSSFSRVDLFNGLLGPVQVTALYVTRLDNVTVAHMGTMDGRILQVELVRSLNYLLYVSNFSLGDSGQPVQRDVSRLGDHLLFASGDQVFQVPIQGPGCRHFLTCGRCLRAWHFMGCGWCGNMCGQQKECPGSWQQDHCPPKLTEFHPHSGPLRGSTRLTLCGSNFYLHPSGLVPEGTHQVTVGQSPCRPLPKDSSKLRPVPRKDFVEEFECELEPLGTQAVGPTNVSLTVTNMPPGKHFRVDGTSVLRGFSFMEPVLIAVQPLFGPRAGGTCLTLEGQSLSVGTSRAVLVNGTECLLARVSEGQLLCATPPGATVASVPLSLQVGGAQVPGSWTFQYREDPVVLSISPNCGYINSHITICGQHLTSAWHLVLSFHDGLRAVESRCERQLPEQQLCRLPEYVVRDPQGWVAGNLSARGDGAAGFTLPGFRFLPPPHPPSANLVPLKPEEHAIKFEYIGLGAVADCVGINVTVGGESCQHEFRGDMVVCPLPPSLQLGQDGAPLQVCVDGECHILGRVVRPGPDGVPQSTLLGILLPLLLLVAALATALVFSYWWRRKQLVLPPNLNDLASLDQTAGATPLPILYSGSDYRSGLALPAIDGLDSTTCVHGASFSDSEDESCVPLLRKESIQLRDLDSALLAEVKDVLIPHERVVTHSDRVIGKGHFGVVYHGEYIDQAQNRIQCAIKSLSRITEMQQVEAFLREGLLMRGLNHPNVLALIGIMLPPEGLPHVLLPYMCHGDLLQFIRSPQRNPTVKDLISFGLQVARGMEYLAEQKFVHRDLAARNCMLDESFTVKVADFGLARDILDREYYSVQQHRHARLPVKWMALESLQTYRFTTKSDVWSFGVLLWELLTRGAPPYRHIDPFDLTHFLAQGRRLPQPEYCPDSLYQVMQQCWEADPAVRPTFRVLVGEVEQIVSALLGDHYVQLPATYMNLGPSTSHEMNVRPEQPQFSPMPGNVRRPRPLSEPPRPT

In the case of `C=CC(=O)Nc1ccc(C(=O)Nc2[nH]nc3c2CN(C(=O)N[C@H](CN(C)C)c2ccccc2)C3(C)C)cc1`, the % of engagement [1] is reported as 0.7%.
`Nc1cnc(N2CCc3cc(S(=O)(=O)Nc4c(F)cc(Cl)cc4F)cc(N4CCCC4=O)c32)nc1` [TP-020n] gave a % of inhibition [2] of -2.82%.
For `Cn1cc(-n2cnc3c(NCc4nc5cc(Cl)c(Cl)cc5[nH]4)nc(N4CCOCC4)nc32)cn1`, the % of control [3] was 0.787%.
Work on `Cc1cc(C)cc([C@H]2c3cc(C)ccc3NC(=O)CN2C(=O)c2ccc(Br)s2)c1` yielded a % of activity ([4]; at 1 µM) of 102% and a % of activity ([4]; at 10 µM) of 96.7%.
With `C=CC(=O)Nc1cccc(C(=O)Nc2ccc(Nc3cc(-c4[nH]c(SC)nc4C)ccn3)cc2)c1` the % of control ([5]; at 1 µM) was 91% and the % of control ([5]; at 5 µM) was 80%.
For `CN1Cc2nccc(-c3cn(C)nc3-c3ccc(F)cc3)c2C1=O`, the % of inhibition [6] was 4%.
`CC[C@@H]1[C@H](F)C(=O)N[C@@H]1COc1nccc2cc(C(N)=O)c(OC)cc12` [ZIMLOVISERTIB] gave a % of inhibition [7] of 12.6%.
